pIC50: −log10 of the molar value.

MAPK14 (human), sequence (Q16539 whole entry, looked up): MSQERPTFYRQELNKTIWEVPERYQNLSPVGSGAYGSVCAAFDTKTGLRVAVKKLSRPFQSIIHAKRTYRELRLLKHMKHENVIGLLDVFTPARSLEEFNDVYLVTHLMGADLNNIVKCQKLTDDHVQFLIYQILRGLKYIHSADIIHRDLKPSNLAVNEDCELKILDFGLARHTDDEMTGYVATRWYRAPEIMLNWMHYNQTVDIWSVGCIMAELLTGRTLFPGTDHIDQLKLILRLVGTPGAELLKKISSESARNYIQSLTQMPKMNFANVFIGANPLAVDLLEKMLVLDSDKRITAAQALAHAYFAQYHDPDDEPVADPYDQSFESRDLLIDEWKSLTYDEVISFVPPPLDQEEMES

This test concerns the target MAPK14 (human) (UniProt Q16539). The experiment in a line: Assessment of MAPK14 Kinase Activity.
On to `COc1cccc(-c2nc3sccn3c2-c2ccnc(S(C)(=O)=O)n2)c1`, for which the pIC50 (usually −log10 of the IC50, conventionally taken in molar units) was 5.00.
In turn, `CC(C)(C)OC(=O)N1CCC[C@H]1CNc1nccc(-c2c(-c3ccc(F)cc3)nc3sccn23)n1` showed a pIC50 of 8.14.
Then `Fc1ccc(Cl)c(-c2nc3occn3c2-c2ccnc(N[C@@H]3CN4CCC3CC4)n2)c1`, with 8.17.
Then `Fc1ccc(-c2nc3sccn3c2-c2ccnc(N3CCCCC3)n2)cc1`, with 6.28.
Consider `Cc1ccc(-c2nc3sccn3c2-c2ccnc(S(C)(=O)=O)n2)cc1`, for which the pIC50 was 5.00.
`C[C@@H](CO)Nc1nccc(-c2c(-c3ccc(F)cc3)nc3occn23)n1` had a pIC50 of 7.46.
Then `C[C@@H](O)CNc1nccc(-c2c(-c3ccc(F)cc3)nc3occn23)n1`, with 7.43.
In turn, `CCCCCOc1nccc(-c2c(-c3ccc(F)cc3)nc3sccn23)n1` showed a pIC50 of 6.05.
Then `COc1cccc(-c2nc3sccn3c2-c2nc(SC)ncc2-c2ccccc2)c1`, with less than 5.00; and `OCCC(CO)Nc1nccc(-c2c(-c3ccc(F)cc3)nc3sccn23)n1` (configuration not stated), with 7.06; and `CS(=O)(=O)c1nccc(-c2c(-c3ccc(F)c(F)c3)nc3sccn23)n1`, with 5.00.
Then `O[C@@H](CNc1nccc(-c2c(-c3ccc(F)cc3)nc3occn23)n1)c1ccccc1`, with 8.05.

Values taken from the Kinase Knowledgebase extract (Sharma et al. 2016).
